Key:
[1] = Antioxidant activity assessed as inhibition of ABTS free radical; type: functional; set-up: concentration or dose not given beside the values; settings: dose or concentration not given here
[2] = Cytotoxicity against Mus musculus (mouse) EAC cells assessed as dead cell at ED50 ug/cm'3 after 2 hr by trypan blue assay; type: functional, Ehrlich
[3] = Cytotoxicity against Mus musculus (mouse) EAC cells assessed as dead cell at ED100 ug/cm'3 after 2 hr by trypan blue assay; type: functional, Ehrlich
[4] = Cytotoxicity against Mus musculus (mouse) EAC cells assessed as dead cell at ED25 ug/cm'3 after 2 hr by trypan blue assay; type: functional, Ehrlich

Nc1nc(-c2cc3ccccc3oc2=O)cs1
inhibition [1]: 74.3%

O=C(CBr)c1cc2ccccc2oc1=O
inhibition [1]: 50.2%

Nc1c(C(=O)c2cc3ccccc3oc2=O)sc(S)c1-c1nc2ccccc2s1
inhibition [1]: 75.6%

O=c1[nH]cc(F)c(=O)[nH]1 [FLUOROURACIL]
Activity [2]: 58% | Activity [3]: 93% | Activity [4]: 37%

N=c1oc2ccccc2cc1C(=O)Nc1nc(-c2cc3ccccc3oc2=O)cs1
Activity [2]: 2.1% | Activity [3]: 4.9% | Activity [4]: 1.3% | inhibition [1]: 61.4%

Nc1c(C(=O)c2cc3ccccc3oc2=O)sc(Nc2ccccc2)c1-c1nc2ccccc2s1
Activity [2]: 2.9% | Activity [3]: 5.7% | Activity [4]: 1.6% | inhibition [1]: 5.94%

N#C/C(C(=O)Nc1nc(-c2cc3ccccc3oc2=O)cs1)=C1/SC(=O)CN1c1ccccc1
Activity [2]: 3.1% | Activity [3]: 7% | Activity [4]: 1.6% | inhibition [1]: 28.9%

N#C/C(=C1/SC=C(c2cc3ccccc3oc2=O)N1c1ccccc1)c1nc2ccccc2s1
Activity [2]: 3% | Activity [3]: 5.7% | Activity [4]: 1.5% | inhibition [1]: 4.15%

Nc1c(C(=O)c2cc3ccccc3oc2=O)sc(Nc2ccccc2)c1C(=O)Nc1nc(-c2cc3ccccc3oc2=O)cs1
Activity [2]: 3% | Activity [3]: 7.1% | Activity [4]: 1.7% | inhibition [1]: 35.4%

CC(=O)c1cc2ccccc2oc1=O
inhibition [1]: 63.6%

N#C/C(C(=O)N1NC(=O)C2C3c4ccccc4C(c4ccccc43)C2C1=O)=C1/SC=C(c2cc3ccccc3oc2=O)N1c1ccccc1 (stereo not drawn)
Activity [2]: 2.6% | Activity [3]: 5.4% | Activity [4]: 1.1% | inhibition [1]: 5.74%

O=C1O[C@H]([C@@H](O)CO)C(O)=C1O
inhibition [1]: 84%

Nc1c(C(=O)c2cc3ccccc3oc2=O)sc(Nc2ccccc2)c1-c1nc2ccccc2[nH]1
Activity [2]: 2.6% | Activity [3]: 5.6% | Activity [4]: 1.4% | inhibition [1]: 0.19%

Nc1c(C(=O)c2cc3ccccc3oc2=O)sc(Nc2ccccc2)c1C(=O)N1NC(=O)C2C3c4ccccc4C(c4ccccc43)C2C1=O (stereo not drawn)
Activity [2]: 3% | Activity [3]: 6.1% | Activity [4]: 1.6% | inhibition [1]: 13.7%

N#CCC(=O)Nc1nc(-c2cc3ccccc3oc2=O)cs1
Activity [2]: 3.8% | Activity [3]: 8% | Activity [4]: 1.8% | inhibition [1]: 70.3%

N#C/C(C(=O)Nc1nc(-c2cc3ccccc3oc2=O)cs1)=C(\Nc1ccccc1)SCC(=O)c1cc2ccccc2oc1=O
Activity [2]: 3.2% | Activity [3]: 6.8% | Activity [4]: 1.5% | inhibition [1]: 23.8%

Source: ChEMBL document CHEMBL3045320, “Synthesis, antitumor and antioxidant evaluation of some new thiazole and thiophene derivatives incorporated coumarin moiety” (2012)
